Source: PubChem BioAssay (NCI)
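Interpolation was linear, between the two tested concentrations surrounding the appropriate level; five concentrations were tested over 48 hours in 96-well plates. The concentration for full growth arrest is given as TGI.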

Legend:
Assay in all cases: NCI anticancer screen, dose series, 48 h
[1] = tested on: MDA-MB-435
[2] = tested on: NCI-H460 lung
[3] = tested on: MOLT-4 leukemia
[4] = tested on: SF-268 CNS
[5] = tested on: UACC-62 melanoma
[6] = tested on: ACHN renal
[7] = tested on: M14 melanoma
[8] = tested on: COLO 205 colon
[9] = tested on: SNB-75 CNS
[10] = tested on: HCT-116 colon
[11] = tested on: SW-620 colon
[12] = tested on: UO-31 renal
[13] = tested on: A498 renal
[14] = tested on: CCRF-CEM leukemia
[15] = tested on: HT29 colon
[16] = tested on: RXF 393 renal
[17] = tested on: OVCAR-8 ovarian
[18] = tested on: SNB-19 CNS
[19] = tested on: RPMI-8226 leukemia
[20] = tested on: 786-0 renal
[21] = tested on: PC-3 prostate
[22] = tested on: SK-MEL-28 melanoma
[23] = tested on: MCF7 breast
[24] = tested on: NCI/ADR-RES ovarian
[25] = tested on: EKVX NSCLC
[26] = tested on: T-47D breast
[27] = tested on: CAKI-1 renal
[28] = tested on: SF-295 CNS
[29] = tested on: SR leukemia
[30] = tested on: SF-539 CNS
[31] = tested on: U251 CNS
[32] = tested on: OVCAR-4 ovarian
[33] = tested on: MALME-3M melanoma
[34] = tested on: BT-549 breast
[35] = tested on: NCI-H522 lung
[36] = tested on: HOP-92 NSCLC
[37] = tested on: NCI-H23 lung
[38] = tested on: HCC-2998 colon
[39] = tested on: OVCAR-3 ovarian
[40] = tested on: HOP-62 NSCLC
[41] = tested on: MDA-N
[42] = tested on: HL-60(TB) leukemia
[43] = tested on: OVCAR-5 ovarian
[44] = tested on: SN12C renal
[45] = tested on: DU-145 prostate
[46] = tested on: SK-OV-3 ovarian
[47] = tested on: HCT-15 colon
[48] = tested on: A549 NSCLC
[49] = tested on: KM12 colon
[50] = tested on: UACC-257 melanoma
[51] = tested on: K-562 leukemia
[52] = tested on: IGROV1 ovarian
[53] = tested on: MDA-MB-231 breast
[54] = tested on: SK-MEL-2 melanoma
[55] = tested on: NCI-H226 lung
[56] = tested on: TK-10 renal
[57] = tested on: LOX IMVI melanoma
[58] = tested on: SK-MEL-5 melanoma

With O=c1c2cc(-c3ccccc3)cnc2sn1-c1ccc(Oc2ccccc2)cc1 the TGI [1] was over 100 µM, the TGI [2] was over 100 µM and the TGI [3] was over 100 µM. For the same compound, the TGI [4] was over 100 µM, the TGI [5] was over 100 µM and the TGI [6] was over 100 µM. The TGI [7] was over 100 µM, the TGI [8] was over 100 µM and the TGI [9] was 75.9 µM. It also gave a TGI [10] of over 100 µM, a TGI [11] of over 100 µM and a TGI [12] of over 100 µM. For the same compound, the TGI [13] was 78.6 µM, the TGI [14] was 82.9 µM and the TGI [15] was 47.6 µM. It also gave a TGI [16] of 44.6 µM, a TGI [17] of over 100 µM and a TGI [18] of 54.7 µM. It also gave a TGI [19] of over 100 µM, a TGI [20] of 36.4 µM and a TGI [21] of 52.1 µM. The TGI [22] was over 100 µM, the TGI [23] was over 100 µM and the TGI [24] was 80.1 µM. For the same compound, the TGI [25] was over 100 µM, the TGI [26] was over 100 µM and the TGI [27] was over 100 µM. For the same compound, the TGI [28] was over 100 µM, the TGI [29] was over 100 µM and the TGI [30] was over 100 µM. The TGI [31] was 78.1 µM, the TGI [32] was 51.9 µM and the TGI [33] was over 100 µM. For the same compound, the TGI [34] was 62.4 µM, the TGI [35] was over 100 µM and the TGI [36] was over 100 µM. It also gave a TGI [37] of over 100 µM, a TGI [38] of over 100 µM and a TGI [39] of over 100 µM. It also gave a TGI [40] of 56.8 µM, a TGI [41] of over 100 µM and a TGI [42] of over 100 µM. The TGI [43] was over 100 µM, the TGI [44] was 89.8 µM and the TGI [45] was over 100 µM. It also gave a TGI [46] of over 100 µM, a TGI [47] of over 100 µM and a TGI [48] of 53.2 µM. It also gave a TGI [49] of over 100 µM, a TGI [50] of over 100 µM and a TGI [51] of over 100 µM. It also gave a TGI [52] of over 100 µM, a TGI [53] of 34.9 µM and a TGI [54] of over 100 µM. For the same compound, the TGI [55] was over 100 µM.

Compound O=C1C2=Cc3ccccc3OC2(O)Oc2ccc(O)cc21 (stereo unspecified) has a TGI [1] of over 100 µM, a TGI [3] of over 100 µM and a TGI [4] of over 100 µM. For the same compound, the TGI [5] was over 100 µM, the TGI [6] was 29.6 µM and the TGI [7] was over 100 µM. The TGI [56] was over 100 µM, the TGI [8] was over 100 µM and the TGI [9] was over 100 µM. For the same compound, the TGI [10] was over 100 µM, the TGI [11] was over 100 µM and the TGI [13] was over 100 µM. The TGI [14] was 44.4 µM, the TGI [15] was over 100 µM and the TGI [16] was over 100 µM. The TGI [17] was over 100 µM, the TGI [19] was over 100 µM and the TGI [20] was over 100 µM. It also gave a TGI [21] of over 100 µM, a TGI [22] of over 100 µM and a TGI [23] of over 100 µM. For the same compound, the TGI [24] was over 100 µM, the TGI [25] was over 100 µM and the TGI [26] was over 100 µM. The TGI [57] was over 100 µM, the TGI [27] was over 100 µM and the TGI [28] was over 100 µM. It also gave a TGI [30] of over 100 µM, a TGI [31] of over 100 µM and a TGI [58] of over 100 µM. It also gave a TGI [33] of over 100 µM, a TGI [34] of over 100 µM and a TGI [36] of over 100 µM. The TGI [37] was over 100 µM, the TGI [38] was over 100 µM and the TGI [39] was over 100 µM. For the same compound, the TGI [40] was over 100 µM, the TGI [41] was over 100 µM and the TGI [43] was over 100 µM. The TGI [44] was over 100 µM, the TGI [45] was over 100 µM and the TGI [46] was over 100 µM. The TGI [47] was over 100 µM, the TGI [48] was over 100 µM and the TGI [49] was over 100 µM. It also gave a TGI [50] of over 100 µM, a TGI [51] of 74.1 µM and a TGI [52] of over 100 µM. The TGI [53] was over 100 µM, the TGI [54] was over 100 µM and the TGI [55] was over 100 µM.
